Drawing on a melting point compilation (Tetko et al.; mined from patent text by program, amines drawn as free bases though some values may be those of a salt), this text covers melting point for 36 compounds.

As usually defined, the melting point is the temperature, or range, at which the solid turns liquid. The compound `NCC1CCC(CNc2ncc3ncnc(Nc4ccc(F)c(Cl)c4)c3n2)CC1` (stereo unspecified) returned a melting point of 155 to 160 °C.
For `CC(=O)N1CCC(N(C)S(C)(=O)=O)CC1` the value was 132 °C; for `O=C1C=CCC(CCc2ccccc2)(c2ccccc2)O1` (stereo unspecified), 130 °C; for `Nc1ncnc2c1c(I)cn2COCCO`, 169 to 170 °C.
In the case of `CCOc1cc(OCCO)cc2c1C(=O)N(COC(=O)c1c(Cl)cccc1Cl)S2(=O)=O`, the melting point worked out at 166 °C.
The same measure for `CC(CN1CCCC1)N1c2ccccc2Sc2ccc(C(=O)NCc3cccc(Cl)c3)cc21` (racemic): 80 °C; for `CC(C)OC(=O)Nc1ccsc1`: 105 to 107 °C.
For `Cc1cc(Cl)cc(NC(=O)Cc2ccc(O)cc2)c1` the value was 176 to 178 °C; for `O=C(O)CCCCCCCOc1ccccc1`, 67 to 68 °C.
For `FC(F)Oc1n[nH]cc1-c1ccccc1` the value was 125 °C.
With `Cc1ccc(S(=O)(=O)NCc2ccc(C(=O)CBr)cc2)cc1`, the melting point fell in the range of 116 to 117 °C.
For `CC1=CC(Cl)C(Cl)(c2cc(C)no2)C=C1C(=O)O` (stereo unspecified) the value was 212 to 213 °C.
The same measure for `CCc1nc(-c2ccc(F)cc2)c(-c2ccc(S(C)(=O)=O)cc2)s1`: 156 to 157 °C; for `N=C(NO)C1=Cc2cc(O)c(O)cc2CC1`: 183 to 185 °C; for `COc1ccc(C(C)(C)C)cc1NC(=S)Nc1cccc2ccccc12`: 158 to 160 °C.
The same measure for `CCOC(=O)N1CCCC(Nc2nc3cncnc3n2Cc2ccc(F)cc2)CC1` (stereo unspecified): 157 °C; for `CN(CC(=O)OC(C)(C)C)S(=O)(=O)c1ccc2c(Cl)cnc(NC(=N)N)c2c1`: 84 °C; for `CC(C)(C)c1cc(SCCC(=O)NN)cc(C(C)(C)C)c1O`: 107 to 110 °C.
`COc1ccc([C@@H]2OC(=O)N[C@@H]2Cc2ccc(C(F)(F)F)cc2)cc1` (racemic) had a melting point of 164 to 165 °C.
For `CCCCn1c(=O)c2cc(OC)c(OC)cc2c2nnc3cc4c(cc3c21)OCO4` the value was 299 °C; for `Cc1cccc(NC(=O)NCC(=O)N2[C@@H](C(=O)NC(C)(C)C)CC[C@H]2c2ccccc2)c1` (racemic), 169 °C; for `Cc1ccccc1-c1cn(-c2ccccc2)c2ncnc(N)c12`, 181 to 182 °C.
The same measure for `COC(=O)c1ccc(OCC(O)CNC(C)(C)C)cc1` (stereo unspecified): 88 to 89 °C; for `CC1(CCl)CN(C2CCN(c3cccc(OC(F)(F)F)c3)C2=O)C1=O` (stereo unspecified): 104 to 106 °C.
The same measure for `COc1ccc(OCC(=O)N[C@@H](Cc2ccccc2)C(=O)CSCc2ccsc2)cc1`: 80 to 81 °C; for `CN1CCC(c2[nH]c(=O)c3ccccc3c2-c2ccc(F)cc2)CC1`: 269 to 271 °C.
In turn, `N#Cc1cnc2cc(C#CCO)ccc2c1Nc1ccc(Cl)cc1Cl` had a melting point of 251 to 253 °C.
For `C[C@H]1COc2c(N3C[C@@H]4CCOC[C@@]4(N)C3)c(F)cc3c(=O)c(C(=O)O)cn1c23` the value was above 300 °C.
As for `OCCCC#Cc1ccc(C(=C2CCCCCC2)c2ccc(O)cc2)cc1`, the melting point fell in the range of 125 to 126 °C.
For `FS(F)(F)(F)(Cl)c1cccc(S(F)(F)(F)(F)Cl)c1` the value was 82 to 83.5 °C; for `O=Cc1ccc(-c2cc(O)ccc2O)cc1`, 203 to 205 °C.
For `COc1ccc(C(=O)c2cnn(C)c2O)c(Cl)c1N=C1CCCCS1=O` (stereo unspecified) the value was 89 to 91 °C; for `CS(=O)(=O)c1ccc(-c2cc(/C=C\CCO[N+](=O)[O-])nn2C2CCCCC2)cc1`, 129 to 130 °C.
The same measure for `CCOC(=O)c1oc2ccc(Cl)cc2c1CN(C)CC(OC)OC`: 58 to 60 °C; for `CN(C)CCCNC(=O)c1c2ccc(Cl)cc2c(-c2ccccc2)n1C`: 146 to 148 °C.
`COc1ccc(S(=O)(=O)N2C(=O)C(NCCC(=O)OC(C)(C)C)(c3ccccc3OC)c3cc(Cl)ccc32)c(OC)c1` (stereo unspecified) registered a melting point of 175 °C.
